{
  "source": "patent US20110256241A1",
  "about": "“METHODS AND COMPOSITIONS FOR THE TREATMENT OF CANCER” (TRASLATIONAL CANCER DRUGS PHARMA, S.L., priority 2008, published 2011)",
  "key": {"[1]": {"system": "Primary BEC (human primary bronchial epithelial cells)", "experiment": "Cell proliferation assay (MTT)", "format": "cell-based", "conditions": "48 h, inhibitor and unit not printed in table (MN58b, μM), read-out: IC50 48 h", "protocol": "(§1) All cell lines used in this study were maintained under standard conditions of temperature (37° C.), humidity (95%), and carbon dioxide (5%). Human primary bronchial epithelial cells, NHBE (BEC) (Cambrex, CC-2541) were grown in BEGM (Bronchial Epithelial cell growth media) BulletKit (Cambrex, CC-3170). Human primary mammary epithelial cells, HMEC (Clonetics, CC-2551) were grown in MEBM medium supplemented with a bullet kit (Clonetics, CC-3150). Epithelial non-small lung cancer cells H460 and H1299, and small cell lung cancer cell lines H510 and H82 were maintained in RPMI supplemented with 10% Fetal Bovine Serum (FBS) (Life Technologies, Grand Island, N.Y.).\n(§2) Cells were seeded on 96-well plates (BD, Falcon, Bioscience, San Jose, Calif., USA) at a density of 6000 cells/well, and incubated for 24 h under standard conditions. […] Absorbance is read at 595 nm in a VersaMax Microplate Reader (Molecular Devices, Sunnyvale, Calif., USA). For sensitization with acid ceramidase inhibitor, cells were pre-treated 4 hours with the correspondent IC50 for NOE before treatment with ChoK inhibitors. NOE (N-Oleoyl ethanolamine) was obtained from Calbiochem (La Jolla, Calif., USA)."}, "[2]": {"system": "H1299 cells", "experiment": "Cell proliferation assay (MTT)", "format": "cell-based, human", "protocol": "as §1, §2"}, "[3]": {"system": "H510 cells", "experiment": "Cell proliferation assay (MTT)", "format": "cell-based, human", "protocol": "as §1, §2"}, "[4]": {"system": "H82 cells", "experiment": "Cell proliferation assay (MTT)", "format": "cell-based, human", "protocol": "as §1, §2"}, "[5]": {"system": "primary cultures of tumours of patients with NSCLC", "experiment": "Primary cultures of NSCLC tumours, crystal violet quantification", "format": "cell-based, human", "conditions": "primary NSCLC tumour cultures, 0-20 μM, 10 days", "protocol": "Resected tissues from NSCLC patients were dissociated (Cell dissociation sieve-tissued grinder Kit CD1, SIGMA), and the obtained cells were seeded in 24 well plates (BD, Falcon, Bioscience, San Jose, Calif., USA). […] The final persistent population in each well was quantified by the method of Cristal Violet as previously described (Rodríguez-González, A. et al., Oncogene, 22:8803-8812). […]"}, "[6]": {"system": "H460 xenografts", "experiment": "NSCLC xenografts, in vivo tumor growth inhibition", "conditions": "FIG. 7A, single agents", "protocol": "Indicated cells were resuspended in DMEM just before inoculation (10^6 cells/0.1 ml), and injected subcutaneously in nu/nu immunosuppressed mice. Mice were kept under standard laboratory conditions according to the guidelines of the Spanish Government. When tumours reached a mean volume of 0.1 cm^3, mice were randomized to control and treated groups. Treatments with the antitumoral agents (and vehicle for control mice) were performed i.p. with following the indicated schedules. Tumors were monitored three times a week by measuring the major (D) and minor (d) diameters, and tumour volume was calculated by V=(D*d^2)/2. Statistical analysis of significant changes in tumour growth was calculated using SPSS software v. 13.0."}, "[7]": {"system": "DR5 (TNFRSF10B or TRAIL-R2) in DLD-1 cell line", "experiment": "DR5 levels by quantitative PCR", "format": "cell-based, human", "protocol": "(§3) 1 μg of RNA was used to generate cDNA using High-Capacity cDNA Archive Kit (Applied Biosystems), and quantitative real-time PCR was carried out in triplicate using the ABI PRISM 7700 Sequence Detector (Applied Biosystems). GAPDH and 18S ribosomal mRNA were amplified as internal controls. Probes used for amplification were from Applied Biosystems as Taqman Gene Expression Assays (ASAH1: HS00602774—M1 Taqman Probe, ASAH2: HS00184096_M1 Taqman Probe and ASAH3: HS00370322_M1 Taqman Probe, DUT: HS00798995_S1 Taqman Probe, TYMS: HS00426591_M1 Taqman Probe, UPP1: HS00427695—M1 Taqman Probe, RRM2: HS00357247_G1 Taqman Probe). The 2-^ΔΔCt method was used (Livak K J., Methods. 2001; 25:402-8) to calculate the relative expression of each gene.\n(§4) TRAIL is a member of the tumour necrosis factor (TNF) superfamily and can induce apoptosis by the extrinsic pathway associated via stimulation of death receptors DR4 (TNFRSF10A or TRAIL-R1) and DR5 (TNFRSF10B or TRAIL-R2). In order to determine the mechanism of the effectivity of the combined therapy of TRAIL and ChoK inhibitors, DR5 and DR4 levels were analysed by quantitative PCR in DLD-1 and SW620 cell lines after treatments with MN58b, TRAIL or their simultaneous combination."}, "[8]": {"system": "DR5 (TNFRSF10B or TRAIL-R2) in SW620 cell line", "experiment": "DR5 levels by quantitative PCR", "format": "cell-based, human", "protocol": "as §3, §4"}, "[9]": {"system": "H460 cells", "experiment": "Affymetrix gene expression analysis of 5-FU metabolization pathway", "format": "cell-based, human", "design": "key to RRM2 (Ribonucleotide Reductase) gene expression / TYMS (Thymidylate synthetase) gene expression / DUT (Deoxyuridine triphosphatase) gene expression: Signal Log Ratio, base 2 (1.0 = 2-fold increase, 0 = no change)", "protocol": "The RNAs from the biopsies selected were isolated for microarrays and QT-PCR, using RNeasy Mini Kit (QIAGEN, Hilden, Germany) following the instructions of the manufactures. Samples were prepared and the array hybridized according to the Affymetrix GeneChip Expression Analysis Technical Manual. Hybridization to Affymetrix U133plus2 GeneChips (54,614 probe sets, representing 47,000 transcripts), staining, washing and scanning procedures were carried out at the Genomic Facility in the National Center of Biotechnology (Madrid, Spain) as described in www.affymetrix.com (Affymetrix, Santa Clara, Calif.). The Signal Log Ratio estimates the magnitude and direction of change of a transcript. The log scale used is base 2, thus a Signal Log Ratio of 1.0 indicates an increase of the transcript level by 2 fold and −1.0 indicates a decrease by 2 fold. A Signal Log Ratio of zero would indicate no change.\nWith the aim of further investigating the mechanism of ChoKIs sensitization to the antitumoral effect of 5-FU, a gene expression analysis of the 5-FU-metabolisation pathway was performed in H460 cells treated at different times with MN58b and RSM-932A using affymetrix technology."}},
  "data": [
    {"smiles": "CN(C)c1cc[n+](Cc2ccc(CCCCc3ccc(C[n+]4ccc(N(C)C)cc4)cc3)cc2)cc1", "note": "[MN58b, 1,4-(4-4′-Bis-((4-(dimethylamine)pyridinium-1-yl)methyl)diphenyl)butane dibromide]", "values": [
      {"measurement": "IC 50", "setting": "[1]", "result": "40.5 ± 6.2", "unit": "µM"},
      {"measurement": "figure in parentheses after IC50 48 h (not defined; fold vs primary cells)", "setting": "[2]", "result": 4},
      {"measurement": "figure in parentheses after IC50 72 h (not defined; fold vs primary cells)", "setting": "[2]", "result": 8},
      {"measurement": "figure in parentheses after IC50 144 h (not defined; fold vs primary cells)", "setting": "[2]", "result": 4},
      {"measurement": "figure in parentheses after IC50 48 h (not defined; fold vs primary cells)", "setting": "[3]", "result": 41},
      {"measurement": "figure in parentheses after IC50 72 h (not defined; fold vs primary cells)", "setting": "[3]", "result": 53},
      {"measurement": "figure in parentheses after IC50 144 h (not defined; fold vs primary cells)", "setting": "[3]", "result": 27},
      {"measurement": "figure in parentheses after IC50 48 h (not defined; fold vs primary cells)", "setting": "[4]", "result": 24},
      {"measurement": "figure in parentheses after IC50 72 h (not defined; fold vs primary cells)", "setting": "[4]", "result": 27},
      {"measurement": "figure in parentheses after IC50 144 h (not defined; fold vs primary cells)", "setting": "[4]", "result": 12},
      {"measurement": "RESISTANT (number of samples)", "setting": "[5]", "result": 28},
      {"measurement": "SENSITIVES (number of samples)", "setting": "[5]", "result": 35},
      {"measurement": "Statistical significance (p), tumour growth", "setting": "[6]", "result": 0.09},
      {"measurement": "increase in DR5 levels", "setting": "[7]", "result": 1.6, "unit": "fold"},
      {"measurement": "increase in DR5 levels", "setting": "[8]", "result": 2, "unit": "fold"},
      {"measurement": "DUT (Deoxyuridine triphosphatase) gene expression", "setting": "[9]; H460, 9 h", "result": "−1.17"},
      {"measurement": "RRM2 (Ribonucleotide Reductase) gene expression", "setting": "[9]; H460, 9 h", "result": "−1.48"},
      {"measurement": "TYMS (Thymidylate synthetase) gene expression", "setting": "[9]; H460, 9 h", "result": "−1.30"},
      {"measurement": "UPP1 (Uridine phosphorylase 1) gene expression", "setting": "[9]; H460, 9 h", "result": "+1.54"},
      {"measurement": "DUT (Deoxyuridine triphosphatase) gene expression", "setting": "[9]; H460, 24 h", "result": "−2.03"},
      {"measurement": "RRM2 (Ribonucleotide Reductase) gene expression", "setting": "[9]; H460, 24 h", "result": "−2.50"},
      {"measurement": "TYMS (Thymidylate synthetase) gene expression", "setting": "[9]; H460, 24 h", "result": "−2.39"},
      {"measurement": "UPP1 (Uridine phosphorylase 1) gene expression", "setting": "[9]; H460, 24 h", "result": "+1.76"}
    ]}
  ]
}
